Laboratory results taken from patent publication US20090023762A1, “Substituted 2-Aminopyrimidine-4-Ones, Their Pharmaceutical Compositions And Their Use In The Treatment And/Or Prevention Of Ab-Related Pathologies” (ASTRAZENECA AB, priority 2005, published 2009).

Biological target: T1, human β-Secretase (Homo sapiens, UniProt P56817)
T1 construct: The soluble part of the human β-Secretase (AA 1-AA 460) was cloned; Fc domain of IgG1 (C); made in house
Assay: TR-FRET assay
Type: biochemical
Conditions: substrate (Europium)CEVNLDAEFK(Qsy7) 100 nM, enzyme 0.3 nM, pH 4.5
Method: The enzyme used in the IGEN Cleavage-, Fluorescent-, TR-FRET- and the BiaCore assay is described as follows:
The soluble part of the human β-Secretase (AA 1-AA 460) was cloned into the ASP2-Fc10-1-IRES-GFP-neoK mammalian expression vector. The gene was fused to the Fc domain of IgG1 (affinity tag) and stably cloned into HEK 293 cells. Purified sBACE-Fc is stored in Tris buffer, pH 9.2 and has a purity of 95%.
Dilute the enzyme (truncated form) to 6 μg/mL (stock 1.3 mg/mL) and the substrate (Europium)CEVNLDAEFK (Qsy7) to 200 nM (stock 60 μM) in reaction buffer (NaAcetate, chaps, triton x-100, EDTA pH4.5). The Biomek FX is used for all liquid handling and the enzyme and substrate solutions are kept on ice until they are placed in Biomek FX. Enzyme (9 μl) is added to the plate then […] in dimethylsulphoxide is added, mixed and pre-incubated for 10 minutes. Substrate (10 μl) is then added, mixed and the reaction proceeds in the dark for 15 minutes at room temperature. The reaction is stopped with the addition of Stop solution (7 μl, NaAcetate pH 9). The fluorescence of the product is measured on a Victor II plate reader with an excitation wavelength of 340 nm and an emission wavelength of 615 nm. The assay is done in a Costar 384 well round bottom, low volume, non-binding surface (Corning #3676). […]

T1 sequence (P56817 22-460): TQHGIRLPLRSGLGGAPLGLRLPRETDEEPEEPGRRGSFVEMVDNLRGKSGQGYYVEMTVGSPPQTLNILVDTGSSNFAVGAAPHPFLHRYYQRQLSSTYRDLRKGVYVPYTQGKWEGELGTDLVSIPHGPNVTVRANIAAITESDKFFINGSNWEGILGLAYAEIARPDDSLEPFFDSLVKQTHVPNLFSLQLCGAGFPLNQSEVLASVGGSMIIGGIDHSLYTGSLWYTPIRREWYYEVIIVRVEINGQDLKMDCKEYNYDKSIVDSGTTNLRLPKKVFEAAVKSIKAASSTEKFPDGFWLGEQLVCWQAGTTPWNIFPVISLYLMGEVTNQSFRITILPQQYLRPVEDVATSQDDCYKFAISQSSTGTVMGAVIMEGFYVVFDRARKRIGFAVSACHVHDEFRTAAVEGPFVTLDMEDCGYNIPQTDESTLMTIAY

IC50: 703 nM
Structure (SMILES): COc1cc(OS(C)(=O)=O)cc(-c2cccc(C3(C)CC(=O)N(C)C(N)=N3)c2)c1 (stereo not shown) [Example 9, 3′-(2-Amino-1,4-dimethyl-6-oxo-1,4,5,6-tetrahydropyrimidin-4-yl)-5-methoxybiphenyl-3-yl methanesulfonate]
